Assay: mn = molality of the nth substance listed, in mol/kg
Settings: Liquid, Vibrating tube method

O=C([O-])O.[Na+] [sodium bicarbonate] + O
mass density [kg/m3]
Settings	298.11 K	323.13 K	348.12 K	373.12 K	398.08 K	423.07 K	448.03 K	473.02 K
1100 kPa, m1 = 0.507	1026.64	1016.27	1002.67	986.45	967.23	945.6	921.6	–
1100 kPa, m1 = 1	1053.32	1042.1	1028.17	1011.61	992.49	971.16	947.75	–
10100 kPa, m1 = 0.507	1030.34	1019.92	1006.34	990.43	971.5	950.33	926.98	900.8
10100 kPa, m1 = 1	1056.9	1045.63	1031.76	1015.42	996.59	975.62	952.76	927.94
20100 kPa, m1 = 0.507	1034.56	1023.96	1010.5	994.75	976.19	955.52	932.57	907.44
20100 kPa, m1 = 1	1060.94	1049.49	1035.74	1019.51	1001.1	980.58	958.38	934.21
30100 kPa, m1 = 0.507	1038.58	1027.87	1014.5	998.96	980.67	960.51	938.23	913.71
30100 kPa, m1 = 1	1064.78	1053.27	1039.62	1023.49	1005.36	985.4	963.67	940.3
40100 kPa, m1 = 0.507	1042.55	1031.74	1018.42	1003.05	985.06	965.22	943.62	919.81
40100 kPa, m1 = 1	1068.62	1057.11	1043.26	1027.56	1009.57	989.89	968.83	946.08
50100 kPa, m1 = 0.507	1046.47	1035.56	1022.29	1007.05	989.37	969.93	948.68	925.55
50100 kPa, m1 = 1	1072.42	1060.81	1047.06	1031.43	1013.71	994.52	973.77	951.65
60100 kPa, m1 = 0.507	1050.19	1039.28	1026.03	1010.74	993.56	974.48	953.67	931
60100 kPa, m1 = 1	1075.95	1064.4	1050.67	1035.29	1017.88	998.85	978.58	956.83
68600 kPa, m1 = 0.507	1053.46	1042.41	1029.22	1014.16	996.98	978.13	957.69	935.54
68600 kPa, m1 = 1	1079.05	1067.35	1053.84	1038.44	1021.02	1002.43	982.48	961.25

O=S(=O)([O-])[O-].[Na+].[Na+] [sodium sulfate] + O
mass density [kg/m3]
Settings	298.11 K	323.13 K	348.12 K	373.12 K	398.08 K	423.07 K	448.03 K	473.02 K
1100 kPa, m1 = 0.783	1089.58	1077.81	1063.59	1047	1028.03	1006.98	983.81	–
1100 kPa, m1 = 1.502	1164.61	1151.3	1136.41	1119.57	1100.73	1080.12	1057.71	–
10100 kPa, m1 = 0.783	1092.97	1081.15	1067.05	1050.62	1032.04	1011.36	988.74	963.68
10100 kPa, m1 = 1.502	1167.61	1154.41	1139.53	1122.86	1104.32	1084.06	1062.06	1038.23
20100 kPa, m1 = 0.783	1096.83	1084.87	1070.84	1054.57	1036.41	1016.13	994.07	969.72
20100 kPa, m1 = 1.502	1170.98	1157.75	1143.04	1126.48	1108.32	1088.31	1067	1043.59
30100 kPa, m1 = 0.783	1100.47	1088.46	1074.53	1058.52	1040.58	1020.77	998.93	975.48
30100 kPa, m1 = 1.502	1174.24	1161	1146.45	1130.05	1112.1	1092.62	1071.61	1048.78
40100 kPa, m1 = 0.783	1104.07	1092.02	1078.24	1062.4	1044.61	1025.11	1004.1	981.03
40100 kPa, m1 = 1.502	1177.46	1164.24	1149.78	1133.55	1115.8	1096.64	1076.11	1053.91
50100 kPa, m1 = 0.783	1107.68	1095.52	1081.79	1066.07	1048.55	1029.51	1008.75	986.37
50100 kPa, m1 = 1.502	1180.69	1167.41	1153.06	1136.94	1119.47	1100.57	1080.33	1058.64
60100 kPa, m1 = 0.783	1111.07	1098.98	1085.27	1069.75	1052.44	1033.66	1013.33	991.46
60100 kPa, m1 = 1.502	1183.64	1170.49	1156.2	1140.35	1123.02	1104.44	1084.59	1063.34
68600 kPa, m1 = 0.783	1113.99	1101.8	1088.2	1072.82	1055.65	1037.1	1017.15	995.65
68600 kPa, m1 = 1.502	1186.24	1173.08	1158.87	1143.15	1125.97	1107.66	1088.14	1067.18

[Cl-].[Cl-].[Sr+2] [strontium chloride] + O
mass density [kg/m3]
Settings	298.11 K	323.13 K	348.12 K	373.12 K	398.08 K	423.07 K	448.03 K	473.02 K
1100 kPa, m1 = 1.022	1130.15	1118.47	1104.6	1088.34	1069.78	1049.35	1026.97	–
1100 kPa, m1 = 2.024	1247.6	1234.1	1219.34	1202.92	1184.72	1165.03	1143.84	–
1100 kPa, m1 = 3.031	1354.92	1340.16	1324.81	1308.43	1290.36	1271.02	1250.51	–
10100 kPa, m1 = 1.022	1133.6	1121.92	1108.06	1092.02	1073.81	1053.57	1031.7	1007.66
10100 kPa, m1 = 2.024	1250.68	1237.28	1222.48	1206.28	1188.28	1168.83	1147.95	1125.38
10100 kPa, m1 = 3.031	1357.74	1343.03	1327.78	1311.58	1293.65	1274.46	1254.24	1232.68
20100 kPa, m1 = 1.022	1137.52	1125.75	1111.92	1095.98	1078.08	1058.3	1037.05	1013.5
20100 kPa, m1 = 2.024	1254.27	1240.69	1226.06	1209.96	1192.23	1173.04	1152.74	1130.5
20100 kPa, m1 = 3.031	1360.96	1346.27	1331.14	1315.04	1297.24	1278.29	1258.62	1237.28
30100 kPa, m1 = 1.022	1141.28	1129.44	1115.71	1100.03	1082.31	1062.95	1042	1019.02
30100 kPa, m1 = 2.024	1257.65	1244.1	1229.57	1213.53	1196.08	1177.32	1157.21	1135.33
30100 kPa, m1 = 3.031	1364.07	1349.35	1334.39	1318.4	1300.87	1282.22	1262.72	1241.64
40100 kPa, m1 = 1.022	1145.04	1133.12	1119.42	1103.81	1086.33	1067.24	1046.83	1024.58
40100 kPa, m1 = 2.024	1260.99	1247.56	1233.02	1217.2	1199.73	1181.23	1161.52	1140.28
40100 kPa, m1 = 3.031	1367.19	1352.55	1337.62	1321.75	1304.29	1285.9	1266.77	1246.19
50100 kPa, m1 = 1.022	1148.76	1136.68	1123.04	1107.65	1090.29	1071.7	1051.49	1029.72
50100 kPa, m1 = 2.024	1264.44	1250.9	1236.41	1220.6	1203.4	1185.23	1165.8	1144.86
50100 kPa, m1 = 3.031	1370.34	1355.63	1340.81	1324.88	1307.65	1289.64	1270.62	1250.44
60100 kPa, m1 = 1.022	1152.26	1140.25	1126.67	1111.38	1094.27	1075.85	1056.12	1034.76
60100 kPa, m1 = 2.024	1267.55	1254.09	1239.66	1224.07	1207.02	1189.05	1169.91	1149.32
60100 kPa, m1 = 3.031	1373.16	1358.71	1343.89	1328.14	1311.1	1293.25	1274.47	1254.53
68600 kPa, m1 = 1.022	1155.3	1143.18	1129.67	1114.46	1097.55	1079.3	1059.85	1038.86
68600 kPa, m1 = 2.024	1270.33	1256.76	1242.52	1226.94	1210.03	1192.19	1173.33	1153.07
68600 kPa, m1 = 3.031	1375.7	1361.18	1346.54	1330.91	1313.86	1296.08	1277.59	1257.93
